Experiments:
B. bifidum = test: free sugar consumption by intestinal microbiota; type: cell-based; design: key: *: predicted, but not observed; ND: Not Determined; details: predicted, but not observed
Source text: (§1) A number of bacterial species are provided in Table 2, since the inventors have discovered preferred carbon source(s) for certain bacteria. Certain embodiments of the invention described herein would include one or more of any of the species found in Table 2.

B. infantis = test: free sugar consumption by intestinal microbiota; type: cell-based; design: key: *: predicted, but not observed; ND: Not Determined; details: predicted, but not observed
Source text: as §1

B. longum = test: free sugar consumption by intestinal microbiota; type: cell-based; design: key: *: predicted, but not observed; ND: Not Determined; details: predicted, but not observed
Source text: as §1

B. breve = test: free sugar consumption by intestinal microbiota; type: cell-based; design: key: *: predicted, but not observed; ND: Not Determined; details: predicted, but not observed
Source text: as §1

L. reuteri = details: Rattanaprasert et al. 2014; cited from earlier work

SMILES	preferences for free sugar consumption (B. bifidum)	preferences for free sugar consumption (B. infantis)	preferences for free sugar consumption (B. longum)	preferences for free sugar consumption (B. breve)	growth of Lactobacillus reuteri on the sugar (L. reuteri)
C[C@H](O)[C@@H](O)[C@@H](O)[C@H](O)C=O [Fucose]	*	*	*	*	
C[C@H](O)[C@H](O)[C@@H](O)[C@@H](O)C=O [Rhamnose]					utilize rhamnose as a terminal electron acceptor to improve its growth
O=C[C@@H](O)[C@H](O)[C@H](O)CO [Arabinose]					known to grow on arabinose

Source: patent publication US20200245667A1, “OLIGOSACCHARIDE COMPOSITIONS AND THEIR USE DURING TRANSITIONAL PHASES OF THE MAMMALIAN GUT MICROBIOME” (EVOLVE BIOSYSTEMS, INC., priority 2017, published 2020)
